Laboratory results taken from ChEMBL document CHEMBL1201862, “PubChem BioAssay data set” (2004).
The source made the active and inactive calls.

Assays:
[1] = HEK-293T viability loss after treatment – luminescence, T-cell screen hits, cytotoxicity control for TCR NF-kB inhibitor project, dose response (AID 489026); type: functional, cell-based;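 note: cells exposed to compound about 14 hours before the viability readout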
[2] = molecular target: T1, Short transient receptor potential channel 4 (Mus musculus, UniProt Q9QUQ5); test: block of DAMGO-driven TRPC4 calcium entry – cell-based, HEK293 TRPC4/mu-opioid, Fluo-4 calcium, dose response (AID 434942); type: functional;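 note: potency of inhibitors blocking the TRPC4 calcium response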
T1 sequence (Q9QUQ5 whole entry): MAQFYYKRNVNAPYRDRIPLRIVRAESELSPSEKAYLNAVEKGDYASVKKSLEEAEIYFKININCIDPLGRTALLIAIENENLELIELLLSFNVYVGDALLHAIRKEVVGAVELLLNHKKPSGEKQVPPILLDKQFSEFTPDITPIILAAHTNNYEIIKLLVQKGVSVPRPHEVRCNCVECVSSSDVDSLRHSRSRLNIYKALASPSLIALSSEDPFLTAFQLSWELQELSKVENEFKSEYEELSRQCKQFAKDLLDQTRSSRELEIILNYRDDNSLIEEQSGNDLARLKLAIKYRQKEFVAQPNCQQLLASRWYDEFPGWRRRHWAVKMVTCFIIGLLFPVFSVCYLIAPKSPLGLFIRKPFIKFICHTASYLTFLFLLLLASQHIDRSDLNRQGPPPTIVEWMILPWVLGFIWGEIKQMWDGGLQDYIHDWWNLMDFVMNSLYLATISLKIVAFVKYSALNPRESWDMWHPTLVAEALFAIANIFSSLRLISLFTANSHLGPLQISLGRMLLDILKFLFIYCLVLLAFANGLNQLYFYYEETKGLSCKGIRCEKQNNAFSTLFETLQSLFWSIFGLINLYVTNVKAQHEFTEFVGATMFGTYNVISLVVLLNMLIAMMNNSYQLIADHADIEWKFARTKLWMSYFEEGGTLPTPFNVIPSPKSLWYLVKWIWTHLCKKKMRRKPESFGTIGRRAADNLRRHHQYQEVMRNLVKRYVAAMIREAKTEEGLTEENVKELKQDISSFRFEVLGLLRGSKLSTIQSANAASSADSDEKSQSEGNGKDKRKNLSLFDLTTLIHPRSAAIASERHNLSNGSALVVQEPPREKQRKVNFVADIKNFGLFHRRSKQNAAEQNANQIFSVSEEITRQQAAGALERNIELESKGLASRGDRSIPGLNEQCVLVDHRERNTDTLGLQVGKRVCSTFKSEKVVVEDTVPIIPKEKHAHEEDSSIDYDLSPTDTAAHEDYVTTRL

[3] = intracellular Trypanosoma cruzi inhibitors in host cells – cell-based, plate reader, cherry-pick samples, set 3, dose response (AID 651818); type: functional;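 note: compounds incubated with infected cells for about four days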
[4] = luciferase reporter signal suppression in cells – H4 neuroglioma cells, luminescence, dose response (AID 1990); type: functional, cell-based
BJ [5] = test: BJ-TERT fibroblast viability loss – cell-based, RAS-independent, luminescence, dose response (AID 1933); type: functional; settings: Homo sapiens
[6] = Luminescence Cell-Based Dose Response HTS to Identify Inhibitors of 5'UTR Stem-Loop Driven Prion Protein mRNA Translation in H4 Neuroglioblastoma Cells. [Related pubchem assays: 1827 (Project Summary), 1813 (Primary HTS)]; type: functional
[7] = alpha-synuclein stem-loop luciferase translation blockers – H4 neuroglioma cells, luminescence, confirmation (AID 1988); type: functional, cell-based
BJ [8] = test: cells; type: functional, cell-based; settings: Homo sapiens
[9] = Trypanosoma cruzi growth suppression in host cells – NIH3T3 host cells, beta-gal luminescence, confirmation (AID 2044); type: functional, cell-based;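 note: intracellular parasites grown in NIH/3T3 mouse fibroblasts as host cells; luminescent beta-galactosidase reporter signal from transgenic T. cruzi replicating inside host cells; inhibitors lower the luminescence signal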
[10] = NIH3T3 cell viability loss – ATP luminescence, mouse fibroblasts, counter-screen, dose response (AID 2010); type: functional, cell-based;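 note: cells exposed to compound for about 90 hours before reading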
BJ [11] = test: BJ-TERT-LT-ST fibroblast viability loss – cell-based, RAS-independent, luminescence, dose response (AID 1935); type: functional; settings: Homo sapiens;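 note: BJ fibroblasts immortalized with TERT plus LT and ST oncogenes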
[12] = DRD fibroblast viability loss – cell-based, non-viral oncogenic, luminescence, dose response (AID 1934); type: functional; settings: Homo sapiens
Nonstructural protein 1 = Nonstructural protein 1 (Influenza A virus, UniProt Q194T2); type: functional, Influenza A virus (A/California/07/2009(H1N1))
INS1 = test: INS-1E survival protection against cytokine death – cell-based, luminescence, retest, dose response (AID 449756); type: functional; settings: Rattus norvegicus, INS1;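 note: cell death triggered by IL-1 beta plus TNF-alpha plus IFN-gamma mixture; protective hits raise ATP signal compared with cytokine alone wells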
[13] = molecular target: Voltage-dependent T-type calcium channel subunit alpha-1H (Homo sapiens, UniProt O95180); type: functional;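 note: channel activity triggered by adding a high calcium stimulation buffer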
Chain of Voltage-dependent T-type calcium channel subunit alpha-1H (O95180 whole entry): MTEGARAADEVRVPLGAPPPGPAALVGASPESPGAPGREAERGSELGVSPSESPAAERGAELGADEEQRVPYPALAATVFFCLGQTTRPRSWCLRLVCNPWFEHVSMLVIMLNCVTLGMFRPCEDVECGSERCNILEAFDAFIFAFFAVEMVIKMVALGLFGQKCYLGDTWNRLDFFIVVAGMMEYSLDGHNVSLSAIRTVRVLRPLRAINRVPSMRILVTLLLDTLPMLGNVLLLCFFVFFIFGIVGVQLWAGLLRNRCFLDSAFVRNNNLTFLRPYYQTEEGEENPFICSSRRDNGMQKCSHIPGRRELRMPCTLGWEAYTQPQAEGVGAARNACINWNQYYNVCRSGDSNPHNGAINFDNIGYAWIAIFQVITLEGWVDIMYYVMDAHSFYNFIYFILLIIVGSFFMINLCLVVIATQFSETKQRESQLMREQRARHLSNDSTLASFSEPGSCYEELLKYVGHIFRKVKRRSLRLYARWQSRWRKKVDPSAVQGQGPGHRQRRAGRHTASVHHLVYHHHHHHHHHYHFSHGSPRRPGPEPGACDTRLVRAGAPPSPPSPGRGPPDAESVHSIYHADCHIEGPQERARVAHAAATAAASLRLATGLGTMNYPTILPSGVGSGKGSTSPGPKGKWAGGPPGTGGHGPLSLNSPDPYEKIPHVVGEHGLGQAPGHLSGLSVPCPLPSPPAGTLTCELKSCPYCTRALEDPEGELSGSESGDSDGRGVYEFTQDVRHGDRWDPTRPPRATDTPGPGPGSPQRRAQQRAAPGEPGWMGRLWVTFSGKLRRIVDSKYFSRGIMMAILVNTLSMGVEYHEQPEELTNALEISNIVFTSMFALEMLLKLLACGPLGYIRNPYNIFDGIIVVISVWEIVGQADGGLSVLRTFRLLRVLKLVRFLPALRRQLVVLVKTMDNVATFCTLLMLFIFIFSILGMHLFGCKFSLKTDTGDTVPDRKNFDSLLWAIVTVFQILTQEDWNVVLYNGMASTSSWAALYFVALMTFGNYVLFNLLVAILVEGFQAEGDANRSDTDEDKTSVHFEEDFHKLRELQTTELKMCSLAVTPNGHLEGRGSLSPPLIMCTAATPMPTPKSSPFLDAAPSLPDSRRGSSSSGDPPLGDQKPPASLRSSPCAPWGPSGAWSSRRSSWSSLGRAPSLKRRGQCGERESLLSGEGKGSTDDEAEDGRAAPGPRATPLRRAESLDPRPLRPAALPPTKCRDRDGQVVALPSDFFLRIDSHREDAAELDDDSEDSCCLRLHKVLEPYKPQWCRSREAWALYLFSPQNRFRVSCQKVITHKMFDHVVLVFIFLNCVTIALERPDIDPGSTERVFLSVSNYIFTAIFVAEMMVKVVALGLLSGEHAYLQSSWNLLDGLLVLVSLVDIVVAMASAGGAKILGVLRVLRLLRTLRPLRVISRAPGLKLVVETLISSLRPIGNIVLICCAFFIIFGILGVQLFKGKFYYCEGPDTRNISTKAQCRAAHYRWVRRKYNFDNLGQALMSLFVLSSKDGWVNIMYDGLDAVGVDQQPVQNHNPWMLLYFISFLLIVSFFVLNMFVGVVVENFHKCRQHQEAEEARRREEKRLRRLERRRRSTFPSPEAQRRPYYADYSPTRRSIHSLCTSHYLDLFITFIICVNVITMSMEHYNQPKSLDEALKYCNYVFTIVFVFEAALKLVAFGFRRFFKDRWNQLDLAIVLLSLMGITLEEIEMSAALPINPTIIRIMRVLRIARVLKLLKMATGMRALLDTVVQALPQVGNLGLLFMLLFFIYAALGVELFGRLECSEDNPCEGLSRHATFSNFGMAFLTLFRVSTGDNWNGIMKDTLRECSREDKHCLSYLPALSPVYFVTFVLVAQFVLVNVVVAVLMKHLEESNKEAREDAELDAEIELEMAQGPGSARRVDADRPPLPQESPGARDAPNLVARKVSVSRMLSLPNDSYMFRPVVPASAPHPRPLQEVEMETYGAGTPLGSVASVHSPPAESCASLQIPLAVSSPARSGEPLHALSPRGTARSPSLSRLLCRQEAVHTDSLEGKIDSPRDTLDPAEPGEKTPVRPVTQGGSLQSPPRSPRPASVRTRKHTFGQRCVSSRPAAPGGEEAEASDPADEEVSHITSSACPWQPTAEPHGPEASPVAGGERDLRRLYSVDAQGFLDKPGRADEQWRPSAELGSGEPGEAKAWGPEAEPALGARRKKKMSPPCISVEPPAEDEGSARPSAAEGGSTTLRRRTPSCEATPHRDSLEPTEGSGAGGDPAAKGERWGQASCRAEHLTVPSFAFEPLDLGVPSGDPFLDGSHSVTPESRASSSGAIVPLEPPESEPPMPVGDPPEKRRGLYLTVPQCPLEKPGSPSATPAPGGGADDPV

Chain of Nonstructural protein 1 (Q194T2 whole entry): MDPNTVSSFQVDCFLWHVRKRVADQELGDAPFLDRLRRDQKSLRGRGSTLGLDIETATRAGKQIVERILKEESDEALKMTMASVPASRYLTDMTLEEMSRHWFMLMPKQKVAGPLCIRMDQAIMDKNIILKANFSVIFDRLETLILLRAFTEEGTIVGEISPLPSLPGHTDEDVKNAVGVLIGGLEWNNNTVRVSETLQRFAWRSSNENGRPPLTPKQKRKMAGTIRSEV

Cc1cccc(NS(=O)(=O)c2ccc(-c3cnc(C4CC4)o3)cc2)c1
IC50 [1]: 67 µM (inactive)

CCOC(=O)c1[nH]c(C)c(C(=O)OCC(=O)NC(C)c2ccc(F)cc2)c1C (centres undefined)
IC50 [1]: > 80 µM (inactive)

CCOC(=O)C1(Cc2ccccc2C)CCCN(Cc2ccc(NC(C)=O)cc2)C1 (centres undefined)
EC50 [2]: 3.35 µM (active)

COc1ccc(OC)c(CN2CCCC(C(=O)c3sccc3C)C2)c1 (centres undefined)
EC50 [2]: 1.88 µM (active)

C[C@@H]1CCCCO[C@H](CN(C)C(=O)Nc2ccc(C(F)(F)F)cc2)[C@@H](C)CN([C@H](C)CO)C(=O)c2cc(NC(=O)Nc3ccc(F)cc3)ccc2O1
AC50 [3]: 1.35 µM (active)

C[C@@H]1CCCCO[C@H](CN(C)Cc2ccc(C(F)(F)F)cc2)[C@@H](C)CN([C@H](C)CO)C(=O)c2cc(NS(=O)(=O)c3ccc(Cl)cc3)ccc2O1
AC50 [3]: 3.33 µM (active)

Cc1cc(C(=O)Nc2cccc3c2O[C@H](CN(C)Cc2ccc(C(=O)Nc4ccccc4N)cc2)[C@H](C)CN([C@H](C)CO)C3=O)n(C)n1
AC50 [3]: 3.15 µM (active)

C[C@H]1CN([C@@H](C)CO)C(=O)c2cc(NC(=O)Nc3ccccc3)ccc2O[C@H]1CN(C)Cc1ccc(C(=O)Nc2ccccc2N)cc1
AC50 [3]: 4.89 µM (active)

C[C@H](CO)N1C[C@H](C)[C@H](CN(C)C(=O)Nc2cccc3ccccc23)Oc2c(NC(=O)Nc3ccc4c(c3)OCO4)cccc2C1=O
AC50 [3]: 11.9 µM (active)

C[C@@H]1CCCCO[C@H](CN(C)Cc2ccc(Cl)c(Cl)c2)[C@@H](C)CN([C@H](C)CO)C(=O)c2cc(NC(=O)Nc3ccccc3)ccc2O1
AC50 [3]: 3.65 µM (active)

CCOC(=O)c1[nH]c(C=O)c(C(=O)OCC)c1C
IC50 [1]: > 80 µM (inactive)

C/C(=N\NC(=O)c1ccccc1Cl)c1ccccn1
EC50 [4]: 9.67 µM (active)
EC50 (BJ [5]): 14.8 µM (active)
EC50 [6]: 6.44 µM (active)
EC50 [7]: 5.67 µM (active)
EC50 (BJ [8]): 13.5 µM (active)
EC50 [9]: 1.5 µM (active)
EC50 [10]: 5.56 µM (active)
EC50 (BJ [11]): 12.2 µM (active)
EC50 [12]: 17.5 µM (active)
IC50 (Nonstructural protein 1): 11.1 µM (active)
AC50 (INS1): 1.4 µM (active)

Cc1snc(S(=O)(=O)/C(C#N)=N/Nc2cccc(C(F)(F)F)c2)c1C#N
EC50 [13]: 7.53 µM (active)

COc1cc(OC)c(/C=C2\C(=O)Nc3ccccc32)c(OC)c1
IC50 [1]: 69.6 µM (inactive)
